The text below walks through data of US8232402B2, “Quinolinone farnesyl transferase inhibitors for the treatment of synucleinopathies and other indications” (Link Medicine Corporation, priority 2008, dated 2012).

The subject of assay [1] is UCH-L1 in SH-SY5Y cells. Description: UCH-L1 membrane association and level in SH-SY5Y cells (2D electrophoresis, Western blot). Type of assay: cell-based. The procedure:
Membrane fractionation: Cells were harvested by scraping and washed with PBS. Cell pellet was suspended in lysis buffer (50 mM Tris-HCl, 1 mM EDTA) supplemented with protease inhibitor cocktail (Sigma) and homogenized by passing through 26G needles 10 times. Suspension was clarified by spinning at 600 g for 5 minutes. Clarified suspension was ultracentrifuged at 100,000 g for 2 hours and separated into membrane and cytosol. Membrane fraction was washed with washing buffer (50 mM Tris-HCl, 1 mM EDTA 1 M NaCl), and pelleted each time with bench-top centrifuge.
2D electrophoresis: For the isolation of total cellular protein, cultured SH-SY5Y cells maintained as described above were rinsed with ice-cold PBS. Cells were lysed in 1 ml dSDS buffer (50 mM Tris-HCl, pH 8.0 0.1% SDS) supplemented with protease inhibitor cocktail. Lysates were boiled for 3 min, and were treated with Dnase and Rnase as described. Lysates were precipitated with ice-cold acetone for at least 2 hours, and pellets were resuspended in 2D sample buffer (8M urea, 0.5% CHAPS, 0.2% DTT, 0.5% IPG buffer, 0.002% bromophenol blue). 2D electrophoresis was carried out according to manufacture's protocol (Amersham Life Science). 7 cm pH 4-7 strips were used. For SH-SY5Y membrane fraction, culture SH-SY5Y cells were rinsed with cold PBS and harvested with lysis buffer (50 mM Tris-HCl, pH 8.0, 1 mM ZnAc2, 250 mM sucrose). Lysate was passed through 25G needles for several times and spun at 1000 g for 5 min. Supernatant was centrifuged at 200,000 g for 2 hours. Pellet was extensively washed with lysis buffer and extracted with cold acetone. Pellet was resuspended in 2D sample buffer.
This species was presumably the fully processed species: farnesylated, truncated and C-terminally methylated.

Assay [2] has as its system primary dopaminergic cultures. Kind of assay: α-synuclein toxicity in primary dopaminergic cultures. It counts as cell-based.
Assay [3] deals with α-synuclein in COS-7 cells. Kind of assay: α-synuclein degradation assay in COS-7 cells. Type of assay: cell-based. The source says:
Plasmids: C220S cDNA was generated by PCR site-specific mutagenesis. For the PCR, the 5′ primer is uchforw SEQ ID NO: 1 ([…]), and 3′ primer is uchc220s SEQ ID NO:2 (CTAAGA […]). Wt UCH-L1 served as the template. The PCR fragment was inserted into pcDNA vector. For S 18YC220S mutant, S 18Y UCH-L1 served as the template in PCR. For the FLAG tagged UCH-L1, the 5′ primer is FLAGuchforw SEQ ID NO: 3 ([…] CGATGGAG), and the 3′ primer is uchrev SEQ ID NO: 4 ([…]). Wt UCH-L1 or C220S served as the template. PCR fragment was purified and inserted into pcDNA vector. For the FLAG tagged UCH-L3, the 5′ primer is L3HindIII SEQ ID NO: 5 (CTAAAGCTTATGGACTAC […]), the 3′ primer is L3XhoISAA SEQ ID NO: 6 ([…]). […] After 24 hours of incubation, the cells were lysed with Tris buffer (50 mM Tris, 2% SDS, 0.1% NP-40), and subjected to SDS-PAGE, followed by quantitative Western blotting.
The C220S mutation eliminated the ability of S118 to promote α-synuclein accumulation in COS-7 cells but had no effect on the S18Y polymorph (FIG. 2, panel C): the relative amount of 16 kDa α-synuclein was quantified and normalized against the amount of actin in transfected COS-7 cells with the presence of UCH-L1 variants. […]

Assay [4] deals with α-synuclein in SH-SY5Y cells. Description: α-synuclein accumulation in infected SH-SY5Y cells (Western blot). It counts as cell-based. The note with it: SH-SY5Y cells infected with α-synuclein adenovirus, normalized to actin. As for the experimental part:
Western Blotting: Following transfer of SDS gels onto NC membrane, all membranes were blocked with 5% non-fat milk in TBST (50 mM Tris-HCl pH7.4, 150 mM NaCl, 0.1% Tween 20), and incubated with primary antibody overnight with 1% BSA in TBST, washed three times with TBST, and incubated with horseradish peroxidase-conjugated secondary antibody for 1 hour (Promega). Bound antibodies were detected using enhanced chemiluminascence (NEM).
Since α-synuclein neurotoxicity is dose-dependent, it follows that accumulation of α-synuclein, caused by UCH-L1 farnesylation, should promote its toxicity. […] These cells express high endogenous levels of UCH-L1. […] The unit of y-axis is 10^5/ml. (F) Cell viability was assessed by the amount of metabolic activity using MTT assay. […] The effect of FTI-277 on the α-synuclein accumulation in the SH-SY5Y infected with α-synuclein-expressing adenovirus were analyzed by Western blotting (B) and the amount of α-synuclein (C) was quantified using NIH Image program and normalized against the amount of actin.

The subject of assay [5] is SH-SY5Y cells overexpressing α-synuclein. Kind of assay: α-synuclein toxicity in SH-SY5Y cells infected with α-synuclein-expressing adenovirus (Trypan blue, MTT). Type of assay: cell-based. As for the experimental part: Viral Infection: Viral infection and MTT assay in SH-SY5Y cells: The viruses were amplified and purified according to the published procedure. SH-SY5Y cells were grown on 100 mm petri-dishes and induced with 100 nM retinoic acid for 3-5 days before the virus infection with M.I.O at 75. Viruses were diluted with DPBS to desired M.I.O. After four hours of incubation, 10 ml growth medium was added. On the second day, cells were splitted into 96-well plates and treated with compounds for next 48 hours. The growth medium in each well was replaced with growth medium with 5 ug/ml MTT. Medium was removed after three hours incubation, and 200 ul isopropyl (0.04N HCl) was added into each well. The signal was read at 570 nm.
Viable cell counting: At stated time points, SH-SY5Y cells were trypsinized with 100 ul trypsin-EDTA for 1 minute and neutralized with 400 ul growth medium. Cell suspension was made up by mixing 0.2 ml of cells in growth medium, 0.3 ml of HBSS and 0.5 ml of 0.4% Trypan Blue solution. Viable cell numbers were counted by standard cell counting chamber.
Since α-synuclein neurotoxicity is dose-dependent, it follows that accumulation of α-synuclein, caused by UCH-L1 farnesylation, should promote its toxicity. […] These cells express high endogenous levels of UCH-L1. […] The unit of y-axis is 10^5/ml. (F) Cell viability was assessed by the amount of metabolic activity using MTT assay. […]

Assay [6] deals with farnesylated UCH-L1. Kind of assay: Farnesylated UCH-L1 in cortex membrane fraction of α-synuclein transgenic mice (quantitative Western blot). Type of assay: in vivo. Conditions: 35 mg/kg twice a day, 30 days. As for the experimental part: Farnesyl transferase inhibitors Zarnestra and OSI-754 were administered to mice of the α-synuclein transgenic line described in Masliah et al. (Masliah et al. “Dopaminergic loss and inclusion body formation in alpha-synuclein mice: implications for neurodegenerative disorders” Science 287(5456): 1265-69, 2000; incorporated herein by reference). Animals from this line have α-synuclein neuronal inclusions in the cortex, hippocampus, and the olfactory bulb (Masliah et al. “Dopaminergic loss and inclusion body formation in alpha-synuclein mice: implications for neurodegenerative disorders” Science 287(5456): 1265-69, 2000; incorporated herein by reference). […]
Total α-synuclein levels were analyzed by a sandwich ELISA assay similar to one previously described (El-Agnaf et al. “Detection of oligomeric forms of alpha-synuclein protein in human plasma as a potential biomarker for Parkinson's disease” FASEB J. 20(3):419-25, 2006; incorporated herein by reference). […] Transgenic mice that received Zarnestra had lower α-synuclein protein levels than vehicle-treated transgenic mice and nearly the same as that detected in the non-transgenic group in both the cytoplasmic (FIG. 10) and membrane fractions (FIG. 11), which represent soluble and insoluble α-synuclein, respectively. […] The amount of UCH-L1 was determined by quantitative Western Blot. […]

The subject of assay [7] is α-synuclein. Kind of assay: α-synuclein sandwich ELISA in brain fractions of α-synuclein transgenic mice. It counts as in vivo. As for the experimental part: (§1) Farnesyl transferase inhibitors Zarnestra and OSI-754 were administered to mice of the α-synuclein transgenic line described in Masliah et al. (Masliah et al. “Dopaminergic loss and inclusion body formation in alpha-synuclein mice: implications for neurodegenerative disorders” Science 287(5456): 1265-69, 2000; incorporated herein by reference). Animals from this line have α-synuclein neuronal inclusions in the cortex, hippocampus, and the olfactory bulb (Masliah et al. “Dopaminergic loss and inclusion body formation in alpha-synuclein mice: implications for neurodegenerative disorders” Science 287(5456): 1265-69, 2000; incorporated herein by reference). Transgenic mice were orally administered either FTI in 20% cyclodextrin solution or the same volume of vehicle alone twice a day for 30 or 90 days. In some cases, non-transgenic mice also received vehicle twice a day for 30 to 90 days. At the end of treatment, mice were sacrificed, and the brains removed and hemisected. One hemisphere of each was fixed in 4% paraformaldehyde/PBS (pH 7.4), cryoperserved, then sectioned for histology. The other hemisphere was subdivided into four brain regions, including the cortex and hippocampus, that were homogenized and processed into cytoplasmic and membrane fractions.
Total α-synuclein levels were analyzed by a sandwich ELISA assay similar to one previously described (El-Agnaf et al. “Detection of oligomeric forms of alpha-synuclein protein in human plasma as a potential biomarker for Parkinson's disease” FASEB J. 20(3):419-25, 2006; incorporated herein by reference). In the cortex of vehicle treated animals, α-synuclein protein levels in the α-synuclein transgenic line are greater than in non-transgenic mice in both cytoplasmic (FIG. 10) and membrane fractions (FIG. 11). Transgenic mice that received Zarnestra had lower α-synuclein protein levels than vehicle-treated transgenic mice and nearly the same as that detected in the non-transgenic group in both the cytoplasmic (FIG. 10) and membrane fractions (FIG. 11), which represent soluble and insoluble α-synuclein, respectively. Farnesylated UCH-L1 in the cortex is contained in the membrane fraction. The amount of UCH-L1 was determined by quantitative Western Blot.

Assay [8] relates to α-synuclein inclusions. Description: Inclusion histology in α-synuclein transgenic mice (α-synuclein and ubiquitin immunostaining, Campbell-Switzer). Type of assay: in vivo. The procedure:
as §1
Formation of α-synuclein inclusions in the cortex and hippocampus was probed by immunostaining with an antibody for human α-synuclein. Cells positive for human α-synuclein were quantified. […] These regions were also analyzed for ubiquitin-immunoreactive inclusions and by the Campbell Switzer method of silver staining. Ubiquitin is known to be a constituent of Lewy bodies and in the α-synculein inclusions found in the transgenic mouse line used in the study (Masliah et al. “Dopaminergic loss and inclusion body formation in alpha-synuclein mice: implications for neurodegenerative disorders” Science 287(5456): 1265-69, 2000; incorporated herein by reference). […] Campbell-Switzer staining is a general marker of Lewy Body type inclusions (Uchihara et al. “Silver stainings distinguish Lewy bodies and glial cytoplasmic inclusions: comparison between Gallyas-Braak and Campbell-Switzer methods” Acta Neuropathol (Berl) 110(3):255-60, 2005; incorporated herein by reference).
Formation of α-synuclein inclusions in the cortex and hippocampus was probed by immunostaining with an antibody for human α-synuclein. Cells positive for human α-synuclein were quantified.

Setting [9] is: α-synuclein transgenic mice, summary, dose not given.

“Also recorded” adds a separate entry of the source.

In the case of `COC(=O)[C@H](CCSC)NC(=O)c1ccc(NC[C@@H](N)CS)cc1-c1ccccc1` [FTI-277], the “total amount of UCH-L1” value in assay [1] is given as “reduced the total amount of UCH-L1”. Further, in assay [1] (compared to DMSO), the “amount of cytosolic UCH-L1” value is listed as “without affecting” and the “amount of membrane bound UCH-L1” value was “significant decrease; also recorded: reducing the amount of membrane-associated protein”. Also, the “rate of turnover of UCH-L1” value in assay [1] (pulse-chase) was “increased its rate of turnover”. Further, the α-synuclein toxicity entry in assay [2] was “inhibit α-synuclein toxicity”. For the same molecule, in assay [3] (COS-7 cells), the α-synuclein levels entry is “lowers α-synuclein levels”. In addition, in assay [4], the “amount of α-synuclein” value was “reduced the amount of α-synuclein”. In addition, the “loss of cells (α-synuclein toxicity)” value in assay [5] is recorded as “inhibits synuclein toxicity; also recorded: significantly decreased loss of cells”.

Consider `Cn1cncc1C(N)(c1ccc(Cl)cc1)c1ccc2c(c1)c(-c1cccc(Cl)c1)cc(=O)n2C` (centres unmarked) [Zarnestra], for which, in assay [6], the “amount of farnesylated UCH-L1” value is listed as “decreased the amount of farnesylated UCH-L1”. Moreover, the “levels of α-synuclein protein (ELISA)” value in assay [7] (cortex, cytoplasmic and membrane fractions, 35 mg/kg twice a day, 30 days) was “decreased levels of α-synuclein protein”. For the same molecule, in assay [7] (setting [9]), the “levels of α-synuclein in the cortex” value is reported as “decrease levels of α-synuclein in the cortex”. The “Campbell-Switzer stained inclusions versus vehicle” value in assay [8] (35 mg/kg twice a day, 30 days) is “fewer inclusions”. Also, the “ubiquitin-immunoreactive inclusions versus vehicle” value in assay [8] (35 mg/kg twice a day, 30 days) is “fewer ubiquitin-immunoreactive inclusions”. Besides, the inclusions versus vehicle result in assay [8] (35 mg/kg twice a day, 30 days, oral) was “fewer inclusions”; in assay [8] (setting [9]), “fewer inclusions”. Also, the “α-synuclein-positive cells per mm^2 versus vehicle” value in assay [8] (cortex and hippocampus, 35 mg/kg twice a day, 30 days) is reported as “significantly fewer”.

`CC(=O)N[C@@H](CSC(=O)[C@]1([C@@H](O)C(C)C)NC(=O)[C@H](C)[C@@H]1O)C(=O)O` [lactacystin]: the “accumulation of α-synuclein” value in assay [3] (transfected COS-7 cells, 35 μM lactacystin, 24 hours) was found to be 100%.
